{"source": "patent US20230255970A1", "about": "“COMPOSITIONS AND METHODS FOR TREATING PROLIFERATIVE DISEASES” (The Broad Institute, Inc., priority 2020, published 2023)", "key": {"[1]": {"system": "TEAD luciferase reporter", "assay": "YAP1-responsive TEAD luciferase reporter assay in HEK293T cells", "format": "cell-based", "conditions": "10 μM, 48 h, HEK-293 cells", "description": "A TEAD luciferase reporter was co-transfected with or without a Yap expression construct into HEK293T cells followed by treatment for 48 hours with DMSO or the indicated compounds. The data shown are the average of three samples within a representative experiment.\nYAP1-related reporter assay: HEK293T cells were co-transfected using Lipofectamine 3000 (Thermo Fisher) with a TEAD luciferase reporter construct, 8×GTIIC-luciferase (Addgene plasmid #34615), a plasmid expressing Renilla Luciferase from a CMV promoter as a transfection control, along with a plasmid expressing 3×Flag-tagged wild-type YAP1 from a CMV promoter (pCMV5 backbone). Following transfection the cells were immediately treated with 0.2% DMSO, 10 μM NB4A, BRD-K34692511 or BRD-K28862419 and then lysed 48 hours later. Lysates were examined using the Dual-Luciferase Reporter Assay System (Promega) according to the manufacturer's protocol and measured using a SpectraMax iD3 plate reader (Molecular Devices). Firefly Luciferase activity from the TEAD reporter was normalized to Renilla Luciferase activity and then plotted as relative values."}, "[2]": {"system": "TC32 human Ewing's family sarcoma cells", "assay": "Proliferation assay, TC32 cells", "format": "cell-based", "conditions": "10 μM daily for 72 hours", "description": "(§1) YAP1 cell culture and treatments: Eisinger lab: Murine KP230 cells, a Yap1-dependent cancer cell line, were derived from a tumor from the KP mouse model (Kras^G12/D; Trp53^f/fl), as described in Eisinger-Mathason, T. S. K. et al., Proc. Natl. Acad. Sci. U.S.A 112 (2015): E3402-11, which is hereby incorporated by reference in its entirety. STS-109 UPS cells were derived from a human UPS tumor and validated by Rebecca Gladdy, MD (Sinai Health System, Toronto, Ontario, Canada). TC32 cells were a gift from Patrick Grohar, MD, PhD (Children's Hospital of Philadelphia). HT-1080, HCT-116, and HEK293T cells were purchased from ATCC. KP230, HT-1080, and HEK-293T cells were grown in DMEM with 10% FBS, 1% L-glutamine, and 1% penicillin/streptomycin (P/S). STS-109 cells were cultured in DMEM with 20% FBS, 1% L-glutamine, and 1% P/S. TC32 cells were grown in RPMI with 10% FBS, 1% L-glutamine, and 1% P/S. HCT-116 cells were cultured in McCoy's 5A medium with 10% FBS and 1% P/S. All cells were confirmed to be negative for mycoplasma contamination and were maintained in an incubator at 37C with 5% CO2. […]\n(§2) NB4A treatment: Cells were treated with 10 μM of each inhibitor or an equivalent volume of DMSO every 24 hours for 3-8 days, and counted with a hemocytometer with trypan blue exclusion daily (KP230, HT-1080, TC32, HCT-116), or every 2 days (STS-109)."}, "[3]": {"system": "YAP1 mRNA", "conditions": "cited from earlier work"}, "[4]": {"system": "STS-109 human UPS cells", "assay": "Proliferation assay, STS-109 cells", "format": "cell-based", "conditions": "10 μM daily", "description": "as §1, §2"}, "[5]": {"system": "HCT-116 colon cancer cells", "assay": "Proliferation assay, HCT-116 cells", "format": "cell-based", "conditions": "10 μM daily for 72 hours", "description": "as §1, §2"}, "[6]": {"system": "KP230, TC32, STS-109, HT-1080, HCT-116 cells", "assay": "Trypan blue staining toxicity in the proliferation assay cell lines", "format": "cell-based", "conditions": "all tested cell lines", "description": "as §2"}, "[7]": {"system": "YAP1 overexpression in U2OS cells", "assay": "Cell Painting morphological profile matching to YAP1/TAZ overexpression signature", "format": "cell-based, human", "how_it_was_run": "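Morphological profiles from Cell Painting (six fluorescent labels) in a single cell line at one time point, standardized plate-wise against control mean and SD, replicate profiles averaged feature-wise. Gene and compound signatures scored by Pearson correlation, large positive or negative correlations counted as matches.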"}, "[8]": {"system": "U2OS cells", "assay": "Cell count in U2OS Cell Painting images", "format": "cell-based, human", "conditions": "U2OS Cell Painting", "how_it_was_run": "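Compound-treated U2OS cells were stained with six fluorescent labels and imaged, and morphological profiles were standardized plate-wise against controls. Replicate profiles were averaged into signatures. Compound and gene-overexpression signatures were matched by Pearson correlation.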"}}, "note": "Like-named read-outs stand apart in the source and are kept apart here.", "data": [{"smiles": "c1ccc(CNc2ncnc3ccccc23)cc1", "note": "[BRD-K43796186, N-benzylquinazolin-4-amine]", "values": [{"measurement": "YAP1-responsive (TEAD) reporter activity", "setting": "[1]", "value": "no effect"}, {"measurement": "proliferation", "setting": "[2]", "value": "inhibited the proliferation"}, {"measurement": "YAP1 mRNA z-score", "setting": "[3]; A375 cells, 6 and 24 hours", "value": "~-0.7"}, {"measurement": "YAP1 mRNA z-score", "setting": "[3]; HT29 cells, six hours", "value": 3.16}, {"measurement": "YAP1 mRNA", "setting": "[3]; most cell types in the Connectivity Map", "value": "unaffected"}, {"measurement": "proliferation", "setting": "[4]", "value": "did not affect the proliferation"}, {"measurement": "proliferation", "setting": "[5]", "value": "did not affect the proliferation"}, {"measurement": "toxicity by trypan blue staining", "setting": "[6]", "value": "did not exhibit overt toxicity"}, {"measurement": "Cell Painting profile correlation with YAP1 overexpression", "setting": "[7]", "value": 0.46}, {"measurement": "Corr. to YAP1 cluster", "setting": "[7]; Pearson correlation of Cell Painting signatures, U2OS cells", "value": 0.4622}, {"measurement": "Avg. Cell Count z-score", "setting": "[8]", "value": "−0.5708"}]}]}
